Reference: the supplement of paper PMC4932681

Experiments:
BT-474 [1] = test: relative IC50 (midpoint of fitted logistic curve, plateau may be below 50% inhibition; CellTiter-Glo viability); higher = less potent; settings: 72 h
How it was run: (§1)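 After seeding into 384-well plates with library drugs at five concentrations spanning a 10 000-fold range, breast cancer cell lines and their resistant derivatives were incubated 72 h at 37 °C. Resistant lines received medium with 1 μM of the selecting drug. CellTiter-Glo signal was read on a PHERAstar and scaled to vehicle-only and positive controls. Drug sensitivity score, relative IC50 (the curve midpoint) and top-dose inhibition came from logistic fits run in the Breeze pipeline.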

BT-474 Tam1 [2] = test: as above; settings: 4-OH-tamoxifen in medium 1 µM; 72 h
How it was run: as §1

ZR-75-1 Tam1 [3] = test: as above; settings: 4-OH-tamoxifen in medium 1 µM; 72 h
How it was run: as §1

T-47D [4] = test: as above; settings: 72 h
How it was run: as §1

T-47D Tam2 [5] = test: as above; settings: 4-OH-tamoxifen in medium 1 µM; 72 h
How it was run: as §1

ZR-75-1 [6] = test: as above; settings: 72 h
How it was run: as §1

MCF-7 Tam1 [7] = test: as above; settings: 4-OH-tamoxifen in medium 1 µM; 72 h
How it was run: as §1

MCF-7 [8] = test: as above; settings: 72 h
How it was run: as §1

ZR-75-1 Tam2 [9] = test: as above; settings: 4-OH-tamoxifen in medium 1 µM; 72 h
How it was run: as §1

T-47D Tam1 [10] = test: as above; settings: 4-OH-tamoxifen in medium 1 µM; 72 h
How it was run: as §1

BT-474 [11] = test: drug sensitivity score (DSS) (DSS (dimensionless)); higher = more sensitive; extreme values may be limits of the assay; settings: 72 h
How it was run: as §1

BT-474 Tam1 [12] = test: as above; settings: 4-OH-tamoxifen in medium 1 µM; 72 h
How it was run: as §1

ZR-75-1 Tam1 [13] = test: as above; settings: 4-OH-tamoxifen in medium 1 µM; 72 h
How it was run: as §1

BT-474 Tam2 [14] = test: as above; settings: 4-OH-tamoxifen in medium 1 µM; 72 h
How it was run: as §1

T-47D [15] = test: as above; settings: 72 h
How it was run: as §1

T-47D Tam2 [16] = test: as above; settings: 4-OH-tamoxifen in medium 1 µM; 72 h
How it was run: as §1

ZR-75-1 [17] = test: as above; settings: 72 h
How it was run: as §1

MCF-7 Tam1 [18] = test: as above; settings: 4-OH-tamoxifen in medium 1 µM; 72 h
How it was run: as §1

MCF-7 [19] = test: as above; settings: 72 h
How it was run: as §1

ZR-75-1 Tam2 [20] = test: as above; settings: 4-OH-tamoxifen in medium 1 µM; 72 h
How it was run: as §1

T-47D Tam1 [21] = test: as above; settings: 4-OH-tamoxifen in medium 1 µM; 72 h
How it was run: as §1

BT-474 Tam2 [22] = test: relative IC50 (midpoint of fitted logistic curve, plateau may be below 50% inhibition; CellTiter-Glo viability); higher = less potent; settings: 4-OH-tamoxifen in medium 1 µM; 72 h
How it was run: as §1

| SMILES | relative IC50 (BT-474 [1]; 4-OH-tamoxifen in medium 0 µM) [µM] | relative IC50 (BT-474 [1]; 4-OH-tamoxifen in medium 1 µM) [µM] | relative IC50 (BT-474 Tam1 [2]) [µM] | relative IC50 (T-47D [4]; 4-OH-tamoxifen in medium 0 µM) [µM] | relative IC50 (T-47D [4]; 4-OH-tamoxifen in medium 1 µM) [µM] | relative IC50 (T-47D Tam2 [5]) [µM] | relative IC50 (MCF-7 Tam1 [7]) [µM] | relative IC50 (MCF-7 [8]; 4-OH-tamoxifen in medium 0 µM) [µM] | relative IC50 (MCF-7 [8]; 4-OH-tamoxifen in medium 1 µM) [µM] | relative IC50 (T-47D Tam1 [10]) [µM] | relative IC50 (BT-474 Tam2 [22]) [µM] | relative IC50 (ZR-75-1 Tam1 [3]) [µM] | relative IC50 (ZR-75-1 [6]; 4-OH-tamoxifen in medium 0 µM) [µM] | relative IC50 (ZR-75-1 [6]; 4-OH-tamoxifen in medium 1 µM) [µM] | relative IC50 (ZR-75-1 Tam2 [9]) [µM] | drug sensitivity score (BT-474 [11]; 4-OH-tamoxifen in medium 0 µM) | drug sensitivity score (BT-474 [11]; 4-OH-tamoxifen in medium 1 µM) | drug sensitivity score (BT-474 Tam1 [12]) | drug sensitivity score (ZR-75-1 Tam1 [13]) | drug sensitivity score (BT-474 Tam2 [14]) | drug sensitivity score (T-47D [15]; 4-OH-tamoxifen in medium 0 µM) | drug sensitivity score (T-47D [15]; 4-OH-tamoxifen in medium 1 µM) | drug sensitivity score (T-47D Tam2 [16]) | drug sensitivity score (ZR-75-1 [17]; 4-OH-tamoxifen in medium 0 µM) | drug sensitivity score (ZR-75-1 [17]; 4-OH-tamoxifen in medium 1 µM) | drug sensitivity score (MCF-7 Tam1 [18]) | drug sensitivity score (MCF-7 [19]; 4-OH-tamoxifen in medium 0 µM) | drug sensitivity score (MCF-7 [19]; 4-OH-tamoxifen in medium 1 µM) | drug sensitivity score (ZR-75-1 Tam2 [20]) | drug sensitivity score (T-47D Tam1 [21]) |
| --- | --- | --- | --- | --- | --- | --- | --- | --- | --- | --- | --- | --- | --- | --- | --- | --- | --- | --- | --- | --- | --- | --- | --- | --- | --- | --- | --- | --- | --- | --- |
| COc1cccc2c1C(=O)c1c(O)c3c(c(O)c1C2=O)C[C@@](O)(C(=O)CO)C[C@@H]3O[C@H]1C[C@H](N)[C@H](O)[C@H](C)O1 [Doxorubicin] | 0.374 | 0.424 | 0.399 | 0.154 | 0.396 | 0.3 | 0.387 | 0.247 | 0.331 | 0.171 | – | 0.286 | 0.199 | 0.214 | 0.144 | 3 | 3.73 | 2.96 | 4.65 | 0.115 | 6.88 | 3.36 | 4.23 | 4.96 | 6.3 | 2.46 | 5.29 | 3.47 | 7.21 | 6.83 |
| O=NN(CCCl)C(=O)NC1CCCCC1 [Lomustine] | > 10 | > 10 | – | > 10 | > 10 | > 10 | > 10 | – | – | > 10 | > 10 | > 10 | > 10 | > 10 | > 10 | 0 | 0 | 0 | 0 | 0 | 0 | 0 | 0 | 0 | 0 | 0 | 0.0319 | 0.0924 | 0 | 0 |
| Cc1cn(-c2cc(NC(=O)c3ccc(C)c(Nc4nccc(-c5cccnc5)n4)c3)cc(C(F)(F)F)c2)cn1 [Nilotinib] | > 10 | > 10 | – | > 10 | > 10 | > 10 | > 10 | > 10 | > 10 | > 10 | > 10 | > 10 | > 10 | > 10 | > 10 | 0 | 0 | 1.63 | 0 | 0 | 0 | 0 | 0 | 0 | 0 | 0 | 0 | 0 | 0 | 0 |
| CC1(C)NC(=O)N(c2ccc([N+](=O)[O-])c(C(F)(F)F)c2)C1=O [Nilutamide] | > 10 | > 10 | > 10 | > 10 | > 10 | > 10 | > 10 | > 10 | – | > 10 | – | > 10 | > 10 | > 10 | > 10 | 0 | 0 | 0 | 0 | 0 | 0 | 0 | 0 | 0 | 0 | 0 | 0 | 0.145 | 0 | 0 |

Further lines, with some results ahead:

| relative IC50 (BT-474 [1]; 4-OH-tamoxifen in medium 0 µM) [µM] | relative IC50 (BT-474 [1]; 4-OH-tamoxifen in medium 1 µM) [µM] | relative IC50 (BT-474 Tam1 [2]) [µM] | relative IC50 (T-47D [4]; 4-OH-tamoxifen in medium 0 µM) [µM] | relative IC50 (T-47D [4]; 4-OH-tamoxifen in medium 1 µM) [µM] | relative IC50 (T-47D Tam2 [5]) [µM] | relative IC50 (MCF-7 Tam1 [7]) [µM] | relative IC50 (MCF-7 [8]; 4-OH-tamoxifen in medium 0 µM) [µM] | relative IC50 (MCF-7 [8]; 4-OH-tamoxifen in medium 1 µM) [µM] | relative IC50 (T-47D Tam1 [10]) [µM] | relative IC50 (BT-474 Tam2 [22]) [µM] | SMILES | relative IC50 (ZR-75-1 Tam1 [3]) [µM] | relative IC50 (ZR-75-1 [6]; 4-OH-tamoxifen in medium 0 µM) [µM] | relative IC50 (ZR-75-1 [6]; 4-OH-tamoxifen in medium 1 µM) [µM] | relative IC50 (ZR-75-1 Tam2 [9]) [µM] | drug sensitivity score (BT-474 [11]; 4-OH-tamoxifen in medium 0 µM) | drug sensitivity score (BT-474 [11]; 4-OH-tamoxifen in medium 1 µM) | drug sensitivity score (BT-474 Tam1 [12]) | drug sensitivity score (ZR-75-1 Tam1 [13]) | drug sensitivity score (BT-474 Tam2 [14]) | drug sensitivity score (T-47D [15]; 4-OH-tamoxifen in medium 0 µM) | drug sensitivity score (T-47D [15]; 4-OH-tamoxifen in medium 1 µM) | drug sensitivity score (T-47D Tam2 [16]) | drug sensitivity score (ZR-75-1 [17]; 4-OH-tamoxifen in medium 0 µM) | drug sensitivity score (ZR-75-1 [17]; 4-OH-tamoxifen in medium 1 µM) | drug sensitivity score (MCF-7 Tam1 [18]) | drug sensitivity score (MCF-7 [19]; 4-OH-tamoxifen in medium 0 µM) | drug sensitivity score (MCF-7 [19]; 4-OH-tamoxifen in medium 1 µM) | drug sensitivity score (ZR-75-1 Tam2 [20]) | drug sensitivity score (T-47D Tam1 [21]) |
| --- | --- | --- | --- | --- | --- | --- | --- | --- | --- | --- | --- | --- | --- | --- | --- | --- | --- | --- | --- | --- | --- | --- | --- | --- | --- | --- | --- | --- | --- | --- |
| > 40 | > 40 | > 40 | > 40 | > 40 | > 40 | > 40 | > 40 | > 40 | > 40 | – | CC[C@@H]1C(=O)OC[C@@H]1Cc1cncn1C [Pilocarpine] | > 40 | > 40 | > 40 | > 40 | 0 | 0 | 0 | 0 | 0 | 0 | 0 | 0 | 0 | 0 | 0 | 0 | 0 | 0 | 0 |
| > 1 | > 1 | – | > 1 | > 1 | > 1 | > 1 | > 1 | > 1 | > 1 | > 1 | CNC(=O)c1cc(Oc2ccc(NC(=O)Nc3ccc(Cl)c(C(F)(F)F)c3)cc2)ccn1 [Sorafenib] | > 1 | > 1 | > 1 | > 1 | 0 | 0 | 0.0104 | 0 | 0 | 0 | 0 | 0 | 0 | 0 | 0 | 0 | 0 | 0 | 0 |
| > 10 | > 10 | – | > 10 | > 10 | > 10 | > 10 | > 10 | > 10 | > 10 | > 10 | Cn1nnc2c(C(N)=O)ncn2c1=O [Temozolomide] | > 10 | – | > 10 | > 10 | 0 | 0 | 0.313 | 0 | 0 | 0 | 0 | 0 | 0.0165 | 0 | 0 | 0 | 0 | 0 | 0 |
